Ends that are not written are not given here.
Assays:
[1] = system: Bacillus subtilis; type: cell-based
[2] = system: sheep red blood cells

RFARKGALRQKNV [Protein kinase C]
effect on Bacillus subtilis in time kill assay [1]: no effect

TRKKLFHIFHATIRSR [PAD-1.17, TRKKLFHIFHATIRSR]
detergent-like (lytic) activity [2]: did not appear to act as a detergent
